Results as given in article PMC7565988, “Insight into the Anticancer Activity of Copper(II) 5-Methylenetrimethylammonium-Thiosemicarbazonates and Their Interaction with Organic Cation Transporters” (Biomolecules, 2020).

Experiments:
Experiment in all cases: [3H]-MPP+ uptake inhibition assay in HEK-293 cells
Format in all cases: cell-based
[1] = target: T1, OCT2 (Homo sapiens, UniProt O15244); details: for IC50: HEK cells stably expressing human OCT2, 10 min uptake; for interaction with OCT2: [3H]-MPP+ uptake inhibition in HEK OCT2 cells
T1 construct: expressed in transfected cells
T1 sequence (O15244 1-555): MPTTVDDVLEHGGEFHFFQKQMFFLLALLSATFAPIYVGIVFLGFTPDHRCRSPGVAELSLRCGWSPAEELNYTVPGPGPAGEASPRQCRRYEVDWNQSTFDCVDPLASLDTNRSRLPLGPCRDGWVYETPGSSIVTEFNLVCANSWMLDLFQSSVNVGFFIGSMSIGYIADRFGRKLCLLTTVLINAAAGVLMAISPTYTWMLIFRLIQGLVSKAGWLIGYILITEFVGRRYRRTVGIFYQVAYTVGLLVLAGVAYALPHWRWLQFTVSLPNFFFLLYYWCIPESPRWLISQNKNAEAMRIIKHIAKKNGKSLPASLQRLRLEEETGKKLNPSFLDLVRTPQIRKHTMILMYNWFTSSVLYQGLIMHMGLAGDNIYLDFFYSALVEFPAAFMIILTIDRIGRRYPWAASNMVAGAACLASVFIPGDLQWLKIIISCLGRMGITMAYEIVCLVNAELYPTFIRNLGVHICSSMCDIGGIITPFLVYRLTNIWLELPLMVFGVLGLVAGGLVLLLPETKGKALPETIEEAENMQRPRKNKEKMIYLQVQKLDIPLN
Protocol: (§1) HEK–293 cells (LGC Standards GmbH, Germany) stably expressing human isoforms of wild type organic cation transporters 1–3 (OCT1–3) were cultured in Dulbecco’s modified Eagle’s medium (DMEM; Sigma-Aldrich) with high glucose (4.5 g/L) and L-glutamine (584 mg/L) supplemented with 10% foetal calf serum (FCS; Biowest) and penicillin/streptomycin mixture (50 mg/L; Sigma/Aldrich) at 37 °C in a humidified atmosphere (5% CO2). The selection reagent was Geneticin (150 U/mL; Merck, Germany) for all three cell lines. Cells were seeded onto poly-D-lysine (0.05 mg/mL; Sigma-Aldrich) precoated clear bottom Corning 96 well white assay plate (Sigma-Aldrich) at the density of 4 × 10^4 cells per well 24 h prior to the experiment.
(§2) The assay was performed as previously described with slight modification. Briefly, on the day of the experiment, cells were washed once with 100 µL Krebs-HEPES buffer (KHB; 10 mM HEPES, 120 mM NaCl, 3 mM KCl, 2 mM CaCl2·2H2O, 2 mM MgCl2·6H2O, 5 mM D-(+)- glucose, pH 7.3) at room temperature. Cells were preincubated for 10 min in 50 µL of RT KHB containing increasing concentrations of tested compounds previously dissolved in dimethyl sulfoxide (DMSO; final concentration in working solution was 1%). After that, the preincubation solution was quickly removed and replaced with 50 µL of uptake solution containing the aforementioned components with the addition of 50 nM [^3H]-1-methyl-4-phenylpyridinium ([^3H]-MPP^+; 60 Ci/mmol; American Radiolabeled Chemicals, Saint Louis, MO, USA). After the 10 min uptake at RT, the transport was stopped by washing cells with 100 µL of ice-cold KHB and adding 200 µL of Ultima GoldTM XR scintillation cocktail (PerkinElmer, MA, USA). The plates were shaken, placed into Wallac 1450 MicroBeta TriLux Liquid Scintillation Counter and Lumi (GMI, Ramsey, MN, USA) and the released radioactivity was measured for 3 min. Nonspecific [^3H]-MPP^+ uptake was measured in the presence of 100 µM decynium-22 and the data were plotted as a percentage of uptake in the presence of 1% DMSO from which the value of the nonspecific uptake was subtracted. Nonlinear regression analysis (GraphPad Prism version 5.0, GraphPad Software, San Diego, CA, USA) was used for calculation of IC50 values.

[2] = target: T2, OCT1 (Homo sapiens, UniProt O15245); details: 10 min uptake; for IC50: HEK cells stably expressing human OCT1
T2 construct: expressed in transfected cells
T2 sequence (O15245 1-554): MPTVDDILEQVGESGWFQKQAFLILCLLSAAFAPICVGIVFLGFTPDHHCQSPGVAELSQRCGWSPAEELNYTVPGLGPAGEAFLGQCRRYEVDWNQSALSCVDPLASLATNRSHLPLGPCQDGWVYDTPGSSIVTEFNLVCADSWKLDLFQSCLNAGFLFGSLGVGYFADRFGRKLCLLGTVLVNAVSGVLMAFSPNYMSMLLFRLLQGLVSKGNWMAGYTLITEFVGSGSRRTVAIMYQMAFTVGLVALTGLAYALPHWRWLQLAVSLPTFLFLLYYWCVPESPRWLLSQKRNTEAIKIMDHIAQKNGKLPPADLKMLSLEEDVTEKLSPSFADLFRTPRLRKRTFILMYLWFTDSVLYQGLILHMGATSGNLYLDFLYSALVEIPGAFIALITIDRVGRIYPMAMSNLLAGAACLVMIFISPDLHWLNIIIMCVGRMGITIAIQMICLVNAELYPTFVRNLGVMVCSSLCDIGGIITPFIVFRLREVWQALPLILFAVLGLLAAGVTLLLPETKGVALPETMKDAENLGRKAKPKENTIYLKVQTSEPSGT
Protocol: as §1, §2

[3] = target: T3, OCT3 (Homo sapiens, UniProt O75751); details: HEK cells stably expressing human OCT3; 10 min uptake
T3 construct: expressed in transfected cells
T3 sequence (O75751 1-556): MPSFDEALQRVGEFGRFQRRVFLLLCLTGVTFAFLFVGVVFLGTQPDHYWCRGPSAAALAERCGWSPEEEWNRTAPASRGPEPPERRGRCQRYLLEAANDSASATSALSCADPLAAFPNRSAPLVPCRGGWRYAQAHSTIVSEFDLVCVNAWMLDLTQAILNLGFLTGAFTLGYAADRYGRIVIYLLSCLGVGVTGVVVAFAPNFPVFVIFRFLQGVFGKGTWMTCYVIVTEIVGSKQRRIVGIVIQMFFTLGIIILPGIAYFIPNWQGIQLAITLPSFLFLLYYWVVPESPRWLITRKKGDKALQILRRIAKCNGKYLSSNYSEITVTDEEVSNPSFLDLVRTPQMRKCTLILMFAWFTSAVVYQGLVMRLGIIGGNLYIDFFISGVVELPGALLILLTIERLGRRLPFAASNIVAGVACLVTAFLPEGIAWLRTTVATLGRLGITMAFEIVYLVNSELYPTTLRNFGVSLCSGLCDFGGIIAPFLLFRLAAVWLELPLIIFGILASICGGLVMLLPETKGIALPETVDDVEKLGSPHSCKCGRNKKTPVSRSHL
Protocol: as §1, §2

IC50 [1] [µM] | IC50 [2] [µM] | IC50 [3] [µM] | Compound | interaction with OCT2 [1] | IC50 at 10 min ([2]; HEK-293 cells stably expressing human OCT1, pH 7.3, probe [3H]-MPP+ (50 nM)) [µM]
> 4000 | 391 ± 40 | 103 ± 23.4 | CNC(=S)N/N=C/c1cc(C[N+](C)(C)C)ccc1O [[H2L^Me]Cl] | no interaction | 
236 ± 97.1 | 169 ± 26.2 | 63.1 ± 8.9 | CCNC(=S)N/N=C/c1cc(C[N+](C)(C)C)ccc1O [[H2L^Et]Cl] |  | 
371 ± 123 | 119 ± 50 | 27.8 ± 5 | C[N+](C)(C)Cc1ccc(O)c(/C=N/NC(=S)Nc2ccccc2)c1 [[H2L^Ph]Cl] |  | 

Compound | IC50 [1] [µM] | IC50 [2] [µM] | IC50 [3] [µM] | interaction with OCT2 [1] | IC50 at 10 min ([2]; HEK-293 cells stably expressing human OCT1, pH 7.3, probe [3H]-MPP+ (50 nM)) [µM]
C[N+](C)(C)Cc1ccc(O)c(/C=N/NC(N)=S)c1 [[H2L^H]Cl] | > 4000 | 740 ± 195 | 105 ± 32.8 | no interaction | 740
